Assay results: ChEMBL document CHEMBL4665786, “Cellular Target Proteome in Breast Cancer Cells of an Oplopane Sesquiterpenoid Isolated from Tussilago farfara” (J Nat Prod, 2020)

Assays:
[1] = tested on: MCF7; test: Antiproliferative activity against human MCF7 cells by MTT assay; type: functional, cell-based
[2] = tested on: MDA-MB-231; test: Antiproliferative activity against human MDA-MB-231 cells by MTT assay; type: functional, cell-based

SMILES | IC50 [1] [µM] | IC50 [2] [µM]
C=C(C1C[C@@H]2O[C@]2(C)C(=O)[C@H]1OC(=O)/C(C)=C\C)[C@H](CC=C(C)C)OC(=O)/C(C)=C\C (stereo partly specified) | > 10 | > 10
C=C1[C@@H]2C(O)C(=O)/C(=C\C)[C@H]2[C@H](C(C)C)C[C@H]1OC(=O)/C=C(\C)CC (stereo partly specified) |  | 11.3
C/C=C1\C(=O)[C@@H](OC(=O)C(C)CC)[C@@H]2[C@@H]1[C@H](C(C)C)C[C@@H](OC(=O)/C=C(\C)CC)C21CO1 (stereo partly specified) | 17.6 | 8.6
C/C=C1\C(=O)[C@@H](OC(=O)C(C)CC)[C@@H]2[C@@H]1[C@H](C(C)C)C[C@@H](OC(=O)/C=C(\C)CC)C2(O)CN=[N+]=[N-] (stereo partly specified) | 14.1 | 5.5
C=C1[C@H](OC(=O)/C=C(\C)CC)C[C@@H](C(C)C)[C@@H]2[C@@H]([C@H](C)OC(C)=O)C(=O)C[C@@H]12 | > 10 | > 10
C=C1[C@H]2[C@@H](C(C(C)OC)C(=O)[C@H]2OC(=O)C(C)CC)[C@H](C(C)C)C[C@H]1OC(=O)/C=C(\C)CC (stereo partly specified) |  | > 90
C=C1[C@H](OC(=O)/C=C(\C)CC)C[C@@H](C(C)C)[C@@H]2/C(=C\C)C(=O)C[C@@H]12 | > 10 | > 10
C=C1[C@H]2[C@@H]([C@@H]([C@H](C)OC(C)=O)C(=O)[C@H]2OC(=O)C(C)CC)[C@H](C(C)C)C[C@H]1OC(=O)/C=C(\C)CC (stereo partly specified) | 12.8 | 7.3
C=C1[C@H](OC(=O)/C=C(\C)CC)C[C@@H](C(C)C)[C@@H]2/C(=C/C)C(=O)C[C@@H]12 | > 10 | > 10
C=C(C1C[C@@H]2O[C@]2(C)C(=O)[C@H]1OC(C)=O)[C@H](CC=C(C)C)OC(=O)/C(C)=C\C (stereo partly specified) | > 10 | > 10
C=C1[C@@H]2C(O)C(=O)C(C(C)OC)[C@H]2[C@H](C(C)C)C[C@H]1OC(=O)/C=C(\C)CC (stereo partly specified) |  | > 90
C=C(C1[C@H](OC(C)=O)C(=O)[C@@]2(C)O[C@H]2[C@@H]1OC(C)=O)[C@H](CC=C(C)C)OC(=O)/C(C)=C\C (stereo partly specified) | > 10 | > 10
